# Assay results as given in PubChem BioAssay (NCI).
#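 In this assay, cells in 96-well plates receive the compound at five concentrations for 48 hours. Endpoints are linearly interpolated between the surrounding concentrations. GI50 is the concentration that inhibits growth by half. At the TGI there is no net growth.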
# What was measured:
# Assay in all cases: growth of human tumour cells (NCI), 48 h
# [1] = system: MDA-MB-435
# [2] = system: NCI/ADR-RES ovarian
# [3] = system: SR leukemia
# [4] = system: LOX IMVI melanoma
# [5] = system: U251 CNS
# [6] = system: HL-60(TB) leukemia
# [7] = system: RPMI-8226 leukemia
# [8] = system: OVCAR-8 ovarian
# [9] = system: A498 renal
# [10] = system: CCRF-CEM leukemia
# [11] = system: RXF 393 renal
# [12] = system: HOP-62 NSCLC
# [13] = system: HS 578T breast
# [14] = system: MOLT-4 leukemia
# [15] = system: TK-10 renal
# [16] = system: UO-31 renal
# [17] = system: OVCAR-4 ovarian
# [18] = system: 786-0 renal
# [19] = system: SNB-19 CNS
# [20] = system: BT-549 breast
# [21] = system: KM12 colon
# [22] = system: SK-MEL-2 melanoma
# [23] = system: HCC-2998 colon
# [24] = system: SF-539 CNS
# [25] = system: EKVX NSCLC
# [26] = system: SNB-75 CNS
# [27] = system: COLO 205 colon
# [28] = system: ACHN renal
# [29] = system: MCF7 breast
# [30] = system: SF-295 CNS
# [31] = system: K-562 leukemia
# [32] = system: NCI-H226 lung
# [33] = system: SW-620 colon
# [34] = system: IGROV1 ovarian
# [35] = system: SK-MEL-5 melanoma
# [36] = system: MALME-3M melanoma
# [37] = system: UACC-257 melanoma
# [38] = system: MDA-MB-231 breast
# [39] = system: OVCAR-3 ovarian
# [40] = system: SK-OV-3 ovarian
# [41] = system: CAKI-1 renal
# [42] = system: T-47D breast
# [43] = system: SF-268 CNS
# [44] = system: NCI-H23 lung
# [45] = system: HCT-15 colon
# [46] = system: DU-145 prostate
# [47] = system: SN12C renal
# [48] = system: UACC-62 melanoma
# [49] = system: HCT-116 colon
# [50] = system: M14 melanoma
# [51] = system: HT29 colon
# [52] = system: PC-3 prostate
# [53] = system: SK-MEL-28 melanoma
# [54] = system: HOP-92 NSCLC
# [55] = system: NCI-H522 lung
# [56] = system: A549 NSCLC
# [57] = system: OVCAR-5 ovarian
# [58] = system: NCI-H460 lung
smiles,measurement,setting,value
Cc1cc(Oc2ccccc2)ccc1Nc1ncnc2ccc(-c3cnc(Cl)c(NS(C)(=O)=O)c3)cc12,GI50,[1],1.26 µM
same,TGI,[1],3.48 µM
same,GI50,[2],3.12 µM
same,TGI,[2],> 100 µM
same,GI50,[3],1.77 µM
same,TGI,[3],5.56 µM
same,GI50,[4],0.964 µM
same,TGI,[4],4 µM
same,GI50,[5],2.19 µM
same,TGI,[5],10.5 µM
same,GI50,[6],1.55 µM
same,TGI,[6],13.7 µM
same,GI50,[7],2.18 µM
same,TGI,[7],6.07 µM
same,GI50,[8],3.39 µM
same,TGI,[8],19 µM
same,GI50,[9],1.38 µM
same,TGI,[9],3.97 µM
same,GI50,[10],1.32 µM
same,TGI,[10],15.6 µM
same,GI50,[11],1.32 µM
same,TGI,[11],3.84 µM
same,GI50,[12],2.84 µM
same,TGI,[12],18.3 µM
same,GI50,[13],0.587 µM
same,TGI,[13],6.81 µM
same,GI50,[14],1.51 µM
same,TGI,[14],5.15 µM
same,GI50,[15],1.79 µM
same,TGI,[15],20.8 µM
same,GI50,[16],0.604 µM
same,TGI,[16],3.65 µM
same,GI50,[17],2.15 µM
same,TGI,[17],10.5 µM
same,GI50,[18],2.23 µM
same,TGI,[18],14 µM
same,GI50,[19],2.2 µM
same,TGI,[19],7.07 µM
same,GI50,[20],1.16 µM
same,TGI,[20],4.5 µM
same,GI50,[21],2.17 µM
same,TGI,[21],7.43 µM
same,GI50,[22],1.39 µM
same,TGI,[22],3.77 µM
same,GI50,[23],1.58 µM
same,TGI,[23],3.75 µM
same,GI50,[24],1.01 µM
same,TGI,[24],3.62 µM
same,GI50,[25],1.49 µM
same,TGI,[25],10.6 µM
same,GI50,[26],0.277 µM
same,TGI,[26],3.41 µM
same,GI50,[27],1.45 µM
same,TGI,[27],3.78 µM
same,GI50,[28],2.45 µM
same,TGI,[28],15.5 µM
same,GI50,[29],0.282 µM
same,TGI,[29],13.1 µM
same,GI50,[30],1.09 µM
same,TGI,[30],5.43 µM
same,GI50,[31],3.58 µM
same,TGI,[31],> 100 µM
same,GI50,[32],3.66 µM
same,TGI,[32],20.1 µM
same,GI50,[33],2.38 µM
same,TGI,[33],13.1 µM
same,GI50,[34],0.227 µM
same,TGI,[34],1.13 µM
same,GI50,[35],1.55 µM
same,TGI,[35],3 µM
same,GI50,[36],0.612 µM
same,TGI,[36],3.79 µM
same,GI50,[37],1.95 µM
same,TGI,[37],8.26 µM
same,GI50,[38],1.62 µM
same,TGI,[38],4.22 µM
same,GI50,[39],0.855 µM
same,TGI,[39],2.6 µM
same,GI50,[40],0.505 µM
same,TGI,[40],4.2 µM
same,GI50,[41],1.04 µM
same,TGI,[41],5.98 µM
same,GI50,[42],0.185 µM
same,TGI,[42],1.37 µM
same,GI50,[43],1.64 µM
same,TGI,[43],12.6 µM
same,GI50,[44],2.18 µM
same,TGI,[44],9.56 µM
same,GI50,[45],1.73 µM
same,TGI,[45],10.7 µM
same,GI50,[46],2.04 µM
same,TGI,[46],12.1 µM
same,GI50,[47],2.16 µM
same,TGI,[47],12.5 µM
same,GI50,[48],0.625 µM
same,TGI,[48],2.11 µM
same,GI50,[49],2.51 µM
same,TGI,[49],13.3 µM
same,GI50,[50],2.04 µM
same,TGI,[50],12.9 µM
same,GI50,[51],1.5 µM
same,TGI,[51],12.1 µM
same,GI50,[52],1.45 µM
same,TGI,[52],10.5 µM
same,GI50,[53],0.745 µM
same,TGI,[53],5.53 µM
same,GI50,[54],0.246 µM
same,TGI,[54],1.38 µM
same,GI50,[55],2.3 µM
same,TGI,[55],10.3 µM
same,GI50,[56],2.03 µM
same,TGI,[56],6.16 µM
same,GI50,[57],0.544 µM
same,TGI,[57],3.66 µM
same,GI50,[58],1.71 µM
same,TGI,[58],12.5 µM
CCOC(=O)/C=C1/SC(N2CCCCC2)C(=O)N1CC (configuration not stated),GI50,[1],> 100 µM
same,TGI,[1],> 100 µM
same,GI50,[2],> 100 µM
same,TGI,[2],> 100 µM
same,GI50,[3],> 100 µM
same,TGI,[3],> 100 µM
same,GI50,[4],> 100 µM
same,TGI,[4],> 100 µM
same,GI50,[5],> 100 µM
same,TGI,[5],> 100 µM
same,GI50,[6],> 100 µM
same,TGI,[6],> 100 µM
same,GI50,[7],> 100 µM
same,TGI,[7],> 100 µM
same,GI50,[8],> 100 µM
same,TGI,[8],> 100 µM
same,GI50,[9],> 100 µM
same,TGI,[9],> 100 µM
same,GI50,[10],> 100 µM
same,TGI,[10],> 100 µM
same,GI50,[11],> 100 µM
same,TGI,[11],> 100 µM
same,GI50,[12],> 100 µM
same,TGI,[12],> 100 µM
same,GI50,[13],> 100 µM
same,TGI,[13],> 100 µM
same,GI50,[14],> 100 µM
same,TGI,[14],> 100 µM
same,GI50,[15],> 100 µM
same,TGI,[15],> 100 µM
same,GI50,[16],> 100 µM
same,TGI,[16],> 100 µM
same,GI50,[17],> 100 µM
same,TGI,[17],> 100 µM
same,GI50,[18],> 100 µM
same,TGI,[18],> 100 µM
same,GI50,[19],> 100 µM
same,TGI,[19],> 100 µM
same,GI50,[20],> 100 µM
same,TGI,[20],> 100 µM
same,GI50,[21],> 100 µM
same,TGI,[21],> 100 µM
same,GI50,[22],> 100 µM
same,TGI,[22],> 100 µM
same,GI50,[23],> 100 µM
same,TGI,[23],> 100 µM
same,GI50,[24],> 100 µM
same,TGI,[24],> 100 µM
same,GI50,[25],> 100 µM
same,TGI,[25],> 100 µM
same,GI50,[26],> 100 µM
same,TGI,[26],> 100 µM
same,GI50,[27],> 100 µM
same,TGI,[27],> 100 µM
same,GI50,[28],> 100 µM
same,TGI,[28],> 100 µM
same,GI50,[29],> 100 µM
same,TGI,[29],> 100 µM
same,GI50,[30],> 100 µM
same,TGI,[30],> 100 µM
same,GI50,[31],> 100 µM
same,TGI,[31],> 100 µM
same,GI50,[32],> 100 µM
same,TGI,[32],> 100 µM
same,GI50,[33],> 100 µM
same,TGI,[33],> 100 µM
same,GI50,[34],> 100 µM
same,TGI,[34],> 100 µM
same,GI50,[35],> 100 µM
same,TGI,[35],> 100 µM
same,GI50,[36],> 100 µM
same,TGI,[36],> 100 µM
same,GI50,[37],> 100 µM
same,TGI,[37],> 100 µM
same,GI50,[38],> 100 µM
same,TGI,[38],> 100 µM
same,GI50,[39],> 100 µM
same,TGI,[39],> 100 µM
same,GI50,[40],> 100 µM
same,TGI,[40],> 100 µM
same,GI50,[41],> 100 µM
same,TGI,[41],> 100 µM
same,GI50,[42],> 100 µM
same,TGI,[42],> 100 µM
same,GI50,[43],> 100 µM
same,TGI,[43],> 100 µM
same,GI50,[44],> 100 µM
same,TGI,[44],> 100 µM
same,GI50,[45],> 100 µM
same,TGI,[45],> 100 µM
same,GI50,[46],> 100 µM
same,TGI,[46],> 100 µM
same,GI50,[47],> 100 µM
same,TGI,[47],> 100 µM
same,GI50,[48],> 100 µM
same,TGI,[48],> 100 µM
same,GI50,[49],> 100 µM
same,TGI,[49],> 100 µM
same,GI50,[50],> 100 µM
same,TGI,[50],> 100 µM
same,GI50,[51],> 100 µM
same,TGI,[51],> 100 µM
same,GI50,[52],> 100 µM
same,TGI,[52],> 100 µM
same,GI50,[53],> 100 µM
same,TGI,[53],> 100 µM
same,GI50,[54],> 100 µM
same,TGI,[54],> 100 µM
same,GI50,[55],> 100 µM
same,TGI,[55],> 100 µM
same,GI50,[56],> 100 µM
same,TGI,[56],> 100 µM
same,GI50,[57],> 100 µM
same,TGI,[57],> 100 µM
same,GI50,[58],> 100 µM
same,TGI,[58],> 100 µM
